In the experiment the test system is 26S proteasome-mediated degradation of SP28. Format: cell-based.

Where a SMILES comes first, the peptide text is derived from it. The star is where a group is joined. Cbz = O=C(OCc1ccccc1)*

`CC(C)C[C@@H](C=O)NC(=O)[C@H](CC(C)C)NC(=O)[C@H](CC(C)C)NC(=O)OCc1ccccc1` [MG132] (Cbz-Leu-Leu-Leu-aldehyde): the “Stability of SP28 C173A/H199A mutant in cells” value was “also stabilized by MG132, although to a much lesser extent” and the “Stability of wild-type SP28 in cells” value is on record as “remarkably enhanced stability of wild-type SP28”.
